Patent publication US20210198277A1, “AMINE-SUBSTITUTED ARYL OR HETEROARYL COMPOUNDS” (Epizyme, Inc., priority 2016, published 2021)

Tests used:
[1] = biological target: T1, EHMT2 (Homo sapiens, UniProt Q96KQ7); test: MDA-MB-231 H3K9me2 in-cell Western assay (EHMT2 ICW); format: cell-based; conditions: Table III; MDA-MB-231 H3K9me2 in-cell Western; read-out: EHMT2 ICW (IC50 μM)
T1 construct: host or cells: MDA-MB-231
T1 sequence (Q96KQ7 1-1210): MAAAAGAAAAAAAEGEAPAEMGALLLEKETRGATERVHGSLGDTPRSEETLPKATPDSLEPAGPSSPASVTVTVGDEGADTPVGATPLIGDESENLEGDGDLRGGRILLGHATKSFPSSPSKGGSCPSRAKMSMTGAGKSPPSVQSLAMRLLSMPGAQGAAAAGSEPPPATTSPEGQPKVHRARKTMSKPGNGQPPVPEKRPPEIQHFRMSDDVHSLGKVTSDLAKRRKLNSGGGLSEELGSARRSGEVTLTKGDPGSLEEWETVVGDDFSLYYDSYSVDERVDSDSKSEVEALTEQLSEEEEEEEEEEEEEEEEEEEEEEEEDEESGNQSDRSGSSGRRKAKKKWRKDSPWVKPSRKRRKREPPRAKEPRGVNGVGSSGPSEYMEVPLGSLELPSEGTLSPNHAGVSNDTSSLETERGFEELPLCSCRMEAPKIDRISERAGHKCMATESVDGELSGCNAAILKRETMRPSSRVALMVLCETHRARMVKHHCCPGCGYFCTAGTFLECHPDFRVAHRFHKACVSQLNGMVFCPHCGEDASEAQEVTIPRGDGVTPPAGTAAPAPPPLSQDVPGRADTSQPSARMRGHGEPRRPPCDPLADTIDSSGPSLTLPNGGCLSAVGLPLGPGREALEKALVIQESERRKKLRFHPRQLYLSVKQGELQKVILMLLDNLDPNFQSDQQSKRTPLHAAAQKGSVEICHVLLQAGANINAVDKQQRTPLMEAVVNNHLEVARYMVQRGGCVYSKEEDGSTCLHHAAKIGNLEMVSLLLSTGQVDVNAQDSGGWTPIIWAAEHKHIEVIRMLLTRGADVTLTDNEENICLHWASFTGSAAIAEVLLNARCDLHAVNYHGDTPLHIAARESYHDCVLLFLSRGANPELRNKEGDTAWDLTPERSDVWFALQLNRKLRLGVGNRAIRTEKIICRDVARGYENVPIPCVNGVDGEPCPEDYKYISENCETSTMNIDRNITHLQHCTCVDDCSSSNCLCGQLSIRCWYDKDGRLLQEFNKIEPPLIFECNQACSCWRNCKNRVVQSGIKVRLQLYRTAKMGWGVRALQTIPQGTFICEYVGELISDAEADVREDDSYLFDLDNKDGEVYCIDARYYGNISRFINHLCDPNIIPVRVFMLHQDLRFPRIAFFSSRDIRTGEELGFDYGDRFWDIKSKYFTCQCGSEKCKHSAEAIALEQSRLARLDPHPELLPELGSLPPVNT
Source text: RPMI/Glutamax medium, Penicillin-Streptomycin, Heat Inactivated Fetal Bovine Serum, and D-PBS were purchased from Life Technologies (Grand Island, N.Y., USA). Odyssey blocking buffer, 800CW goat anti-mouse IgG (H+L) antibody, and Licor Odyssey Infrared Scanner were purchased from Licor Biosciences, Lincoln, Nebr., USA. […] 16% Paraformaldehyde was purchased from Electron Microscopy Sciences, Hatfield, Pa., USA).MDA-MB-231 cells were maintained in complete growth medium (RPMI supplemented with 10% v/v heat inactivated fetal bovine serum) and cultured at 37° C. under 5% CO2. UNC0638 was purchased from Sigma-Aldrich (St. Louis, Mo., USA).
Compound (100 nL) was added directly to 384-well cell plate. MDA-MB-231 cells (ATCC) were seeded in assay medium (RPMI/Glutamax supplemented with 10% v/v heat inactivated fetal bovine serum and 1% Penicillin/Streptomycin, Life Technologies) at a concentration of 3,000 cells per well to a Poly-D-Lysine coated 384-well cell culture plate with 50 μL per well. […] Plates were incubated at room temperature for 30 minutes and then incubated at 37° C., 5% CO2 for additional 48 hours. After the incubation, 50 μL per well of 8% paraformaldehyde (Electron Microscopy Sciences) in PBS was added to the plates and incubated at room temperature for 20 minutes. […] Next, 60 μL per well of Odyssey blocking buffer (Licor Biosciences) was added to each plate and incubated for 1 hour at room temperature. Blocking buffer was removed and 20 μL of monoclonal primary antibody α-H3K9me2 (Abcam) diluted 1:800 in Odyssey buffer with 0.1% Tween 20 (v/v) were added and plates were incubated overnight (16 hours) at 4° C. Plates were washed 5 times with 100 μL per well of wash buffer. Next 20 μL per well of secondary antibody was added (1:500 800CW donkey anti-mouse IgG (H+L) antibody (Licor Biosciences), 1:1000 DRAQ5 (Cell Signaling Technology) in Odyssey buffer with 0.1% Tween 20 (v/v)) and incubated for 1 hour at room temperature. The plates were washed 5 times with 100 μL per well wash buffer then 2 times with 100 μL per well of water. Plates were allowed to dry at room temperature then imaged on a Licor Odyssey Infrared Scanner (Licor Biosciences) which measured integrated intensity at 700 nm and 800 nm wavelengths. Both 700 and 800 channels were scanned.
First, the ratio for each well was determined by:
The average of the ratio values for each well was calculated and used to determine the percent inhibition for each test well in the plate. Control compound was serially diluted three-fold in DMSO for a total of 10 test concentrations beginning at 1 μM. Percent inhibition was calculated as: […]
IC50 curves were generated using triplicate wells per concentration of compound. […] IC50 values were calculated using a non-linear regression (variable slope-four parameter fit model) with by the following formula: […]

[2] = biological target: T2, human EHMT2 913-1193 (Homo sapiens, UniProt Q96KQ7); test: EHMT2 enzyme assay on histone peptide substrate (EHMT2 PEP); format: biochemical; conditions: Table III; read-out: EHMT2 PEP (IC50 μM)
T2 construct: recombinant purified human EHMT2 913-1193, Viva; purchased Viva
T2 sequence (Q96KQ7 913-1193): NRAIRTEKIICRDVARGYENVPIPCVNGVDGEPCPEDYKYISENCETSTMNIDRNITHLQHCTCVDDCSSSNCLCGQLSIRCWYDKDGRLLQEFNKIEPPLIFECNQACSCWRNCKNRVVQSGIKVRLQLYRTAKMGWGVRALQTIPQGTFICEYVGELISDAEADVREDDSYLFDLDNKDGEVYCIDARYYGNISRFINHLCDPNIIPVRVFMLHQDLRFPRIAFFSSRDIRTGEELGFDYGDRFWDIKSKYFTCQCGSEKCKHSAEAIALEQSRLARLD
Procedure: Recombinant purified human EHMT2 913-1193 (55 μM) synthesized by Viva was used for all experiments. Biotinylated histone peptides were synthesized by Biopeptide and HPLC-purified to >95% purity. Streptavidin Flashplates and seals were purchased from PerkinElmer and 384 Well V-bottom Polypropylene Plates were from Greiner. ^3H-labeled S-adenosylmethionine (^3H-SAM) was obtained from American Radiolabeled Chemicals with a specific activity of 80 Ci/mmol. Unlabeled SAM and S-adenosylhomocysteine (SAH) were obtained from American Radiolabeled Chemicals and Sigma-Aldrich respectively. Flashplates were washed in a Biotek ELx-405 with 0.1% Tween. 384-well Flashplates and 96-well filter binding plates were read on a TopCount microplate reader (PerkinElmer). Compound serial dilutions were performed on a Freedom EVO (Tecan) and spotted into assay plates using a Thermo Scientific Matrix PlateMate (Thermo Scientific). Reagent cocktails were added by Multidrop Combi (Thermo Scientific).
General Procedure for EHMT2 Enzyme Assay on Histone Peptide Substrate.
10-point curves of test compounds were made on a Freedom EVO (Tecan) using serial 3-fold dilutions in DMSO, beginning at 2.5 mM (final top concentration of compound was 50 μM and the DMSO was 2%). A 1 μL aliquot of the inhibitor dilution series was spotted in a polypropylene 384-well V-bottom plate (Greiner) using a Thermo Scientific Matrix PlateMate (Thermo Scientific). […] Compounds were incubated for 30 minutes with 40 μL per well of 0.031 nM EHMT2 (recombinant purified human EHMT2 913-1193, Viva) in 1× assay buffer (20 mM Bicine [pH 7.5], 0.002% Tween 20, 0.005% Bovine Skin Gelatin and 1 mM TCEP). […] Reactions were incubated for 60 minutes at room temperature and quenched with 10 μL per well of 400 μM unlabeled SAM, then transferred to a 384-well streptavidin Flashplate (PerkinElmer) and washed in a Biotek ELx-405 well washer with 0.1% Tween after 60 minutes. 384-well Flashplates were read on a TopCount microplate reader (PerkinElmer).

CNc1ccnc(Nc2ccc(OC)c(OCCCN3CCC3)c2)n1 [Compound 281]
IC50 [1]: 0.1 to 1 µM
IC50 [2]: < 0.1 µM

CNc1ccnc(Nc2ccc(OC)c(OCCCN3CCCC3)c2)n1 [Compound 399]
IC50 [1]: 0.1 to 1 µM
